# Experimental data taken from the supplement of paper PMC11061612.
# Experiments:
# Assay in all cases: combination Emax (second highest fraction inhibited in the dose matrix, 72 h); higher = more inhibition; extreme values may be limits of the assay
# [1] = tested on: ATN-1 (T-Lymphoblastic Leukemia)
# Method in brief: (§1)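 Cell lines in DMEM/F12 or RPMI with 10% FBS were plated in 1536-well plates, held 24 hours at 37°C, 5% CO2, then given two-drug dose matrices for 72 hours (DMSO typically 0.2%). Viability was read by CellTiter-Glo 2.0 luminescence and scaled as inhibition from 0 (vehicle wells) to 1 (blank wells). Combination Emax is the second-highest inhibition in the matrix; Bliss excess is observed combination effect minus expected EA + EB − EA·EB, EA and EB being single-agent effects.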
# [2] = tested on: COR-L105 (Lung Adenocarcinoma)
# Method in brief: as §1
# [3] = tested on: TK (B-Cell Non-Hodgkin's Lymphoma)
# Method in brief: as §1
# [4] = tested on: HT-1197 (Bladder Carcinoma)
# Method in brief: as §1
# SK-N-DZ (Neuroblastoma) = tested on: SK-N-DZ (Neuroblastoma)
# Method in brief: as §1
# [5] = tested on: RPMI-8402 (T-Lymphoblastic Leukemia)
# Method in brief: as §1
# [6] = tested on: CAL-85-1 (Breast Carcinoma)
# Method in brief: as §1
# [7] = tested on: SBC-3 (Small Cell Lung Carcinoma)
# Method in brief: as §1
# [8] = tested on: RS4-11 (B-Lymphoblastic Leukemia)
# Method in brief: as §1
# [9] = tested on: HT-3 (Cervical Carcinoma)
# Method in brief: as §1
# [10] = tested on: NCI-H2170 (Squamous Cell Lung Carcinoma)
# Method in brief: as §1
# [11] = tested on: SUP-HD1 (Hodgkin's Lymphoma)
# Method in brief: as §1
# MG-63 (Osteosarcoma) = tested on: MG-63 (Osteosarcoma)
# Method in brief: as §1
# [12] = tested on: MDA-MB-175-VII (Breast Carcinoma)
# Method in brief: as §1
# [13] = tested on: SNU-1 (Gastric Carcinoma)
# Method in brief: as §1
# [14] = tested on: NCI-H1944 (Lung Adenocarcinoma)
# Method in brief: as §1
# [15] = tested on: NCI-H1975 (Lung Adenocarcinoma)
# Method in brief: as §1
# [16] = tested on: SCC90 (Head and Neck Carcinoma)
# Method in brief: as §1
# [17] = tested on: BT-474 (Breast Carcinoma)
# Method in brief: as §1
# [18] = tested on: NCI-H835 (Other Solid Carcinomas)
# Method in brief: as §1
SMILES,combination Emax [1],combination Emax [2],combination Emax [3],combination Emax [4],combination Emax (SK-N-DZ (Neuroblastoma)),combination Emax [5],combination Emax [6],combination Emax [7],combination Emax [8],combination Emax [9],combination Emax [10],combination Emax [11],combination Emax (MG-63 (Osteosarcoma)),combination Emax [12],combination Emax [13],combination Emax [14],combination Emax [15],combination Emax [16],combination Emax [17],combination Emax [18]
"NC1(C(=O)N[C@@H](CCO)c2ccc(Cl)cc2)CCN(c2ncnc3[nH]ccc23)CC1 [Capivasertib] + CCN(CCO)CCCOc1ccc2c(Nc3cc(CC(=O)Nc4cccc(F)c4)[nH]n3)ncnc2c1 [AZD2811] (first compound max 10 µM, 7x7, partner max 1 µM)",0.86,0.377,0.231,0.439,0.619,0.939,0.203,0.622,0.96,0.104,0.834,0.657,0.855,0.683,0.404,0.628,0.611,0.867,0.348,0.535
"NC1(C(=O)N[C@@H](CCO)c2ccc(Cl)cc2)CCN(c2ncnc3[nH]ccc23)CC1 [Capivasertib] + COc1nnc2ccc(N3CCC(c4ccc(OCCN5CCN(C)C(=O)[C@H]5C)cc4)CC3)nn12 [AZD5153] (first compound max 10 µM, 7x7, partner max 1 µM)",0.654,0.381,0.387,0.759,0.646,0.991,0.434,0.744,0.867,0.308,0.594,0.857,0.86,0.571,0.652,0.842,0.652,0.986,0.416,0.944
"NC1(C(=O)N[C@@H](CCO)c2ccc(Cl)cc2)CCN(c2ncnc3[nH]ccc23)CC1 [Capivasertib] + C[C@@H]1COCCN1C2=NC(=NC(=C2)C3(CC3)[S@](=N)(=O)C)C4=C5C=CNC5=NC=C4 [AZD6738] (first compound max 10 µM, 7x7, partner max 10 µM)",0.965,0.501,0.871,0.491,0.983,0.997,0.47,0.69,0.967,0.575,0.809,0.762,0.855,0.683,0.718,0.974,0.669,0.804,0.406,0.456
"NC1(C(=O)N[C@@H](CCO)c2ccc(Cl)cc2)CCN(c2ncnc3[nH]ccc23)CC1 [Capivasertib] + Cn1cnc2c(F)c(Nc3ccc(Br)cc3Cl)c(C(=O)NOCCO)cc21 [Selumetinib] (first compound max 10 µM, 7x7, partner max 10 µM)",0.77,0.492,0.0522,0.531,0.405,0.633,0.411,0.346,0.468,0.281,0.653,0.496,0.793,0.957,0.574,0.738,0.829,0.992,0.39,0.41
"COc1cccc2c1C(=O)c1c(O)c3c(c(O)c1C2=O)C[C@@](O)(C(=O)CO)C[C@@H]3O[C@H]1C[C@H](N)[C@H](O)[C@H](C)O1 [Doxorubicin] + Cc1cc2ncnn2cc1Nc1ncc2c(n1)n(C1CCOCC1)c(=O)n2C [AZD7648] (first compound max 1 µM, 7x7, partner max 10 µM)",0.996,0.473,0.73,0.735,0.613,1,0.634,0.968,0.977,0.781,0.891,0.878,0.896,0.512,0.848,0.625,0.932,0.603,0.197,0.516
"CS(=O)(=O)CCNCc1ccc(-c2ccc3ncnc(Nc4ccc(OCc5cccc(F)c5)c(Cl)c4)c3c2)o1 [Lapatinib] + C[C@@H](Oc1cc(-c2cnn(C3CCNCC3)c2)cnc1N)c1c(Cl)ccc(F)c1Cl [Crizotinib] (first compound max 10 µM, 7x7, partner max 10 µM)",0.988,0.815,0.701,0.536,0.899,0.995,0.944,0.971,0.883,0.234,0.998,0.895,0.936,1,0.857,0.958,0.631,0.946,0.905,0.459
"CC(=O)c1c(C)c2cnc(Nc3ccc(N4CCNCC4)cn3)nc2n(C2CCCC2)c1=O [Palbociclib] + CC1(C)CCC(CN2CCN(c3ccc(C(=O)NS(=O)(=O)c4ccc(NCC5CCOCC5)c([N+](=O)[O-])c4)c(Oc4cnc5[nH]ccc5c4)c3)CC2)=C(c2ccc(Cl)cc2)C1 [Venetoclax] (first compound max 10 µM, 7x7, partner max 1 µM)",0.608,0.0862,0.975,0.16,0.516,0.972,0.0543,0.613,1,0.116,0.362,0.758,0.345,0.171,0.451,0.523,0.423,0.155,0.0591,0.255
